Test results: the NIST ThermoML archive (doi:10.1016/j.fluid.2012.11.007)
Several values for one entry are separate records, joined by “and”; a condition that tells them apart may be missing. Identical values can stand only once. ± gives the expanded uncertainty stated by the source.

Experiments:
[1] = Crystal; DTA
[2] = Molar enthalpy of transition or fusion; settings: Crystal; DSC

Normal melting temperature [1] | Molar enthalpy of transition or fusion [2] | Compound
69.80 ± 0.5 °C | 25.5 kJ/mol and 25.2 kJ/mol | CCCCn1cc[n+](C)c1.[Cl-] [1-butyl-3-methylimidazolium chloride]
88.60 ± 0.5 °C | 15.3 ± 0.53 kJ/mol | CCn1cc[n+](C)c1.[Cl-] [1-ethyl-3-methylimidazolium chloride]
